Laboratory results taken from patent US7670416B2, “Use of a combination of substances to prevent biofouling organisms” (I-Tech AB, priority 2005, dated 2010).

Legend:
[1] = tested on: Barnacle cyprid larvae; experiment: cyprid settling rate assay (barnacle biofouling); format: in vivo
Description: The assays that are be used are the cyprid settling rate assay and the algae germination test.

[2] = tested on: Ulva; experiment: algae spore germination test (Ulva biofouling);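 note: ulva spores exposed to test compound, then compound removed and spores germinated in culture medium under fluorescent light, 16 h light and 8 h dark, for 7 days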
Protocol: (§1) The efficacy of algicides is usually tested by a spore germination test. Algae are collected from the field and grown in the laboratory. […] The water with test compound is then removed and culture medium is added. The spores are left to germinate under fluorescent lamps (50 μm-2s-1 (PAR)), 16 h light, 8 h darkness, for 7 days in a culture medium, which is changed once a day.
(§2) All the different brands are tested in combination with Catemine 1 for efficacy against both barnacles and algae with the two compounds together or separate. The assays that are be used are the cyprid settling rate assay and the algae germination test.

[3] = tested on: Enteromorpha; experiment: algae spore germination test (Enteromorpha biofouling); format: in vivo
Protocol: as §1, §2

[4] = tested on: algae; details: reference (6); target protein lacking within algae; cited from earlier work
[5] = tested on: barnacle cyprids; details: reference (6); cited from earlier work
[6] = 0.1 nM Catemine 1 alone (Table 2)
[7] = 0.1 nM Catemine 1 alone (Table 4)
[8] = 1 nM Catemine 1 alone (Table 2)
[9] = 1 nM Catemine 1 alone (Table 4)
[10] = 10 nM Catemine 1 alone (Table 2)
[11] = 10 nM Catemine 1 alone (Table 4)
[12] = 100 nM Catemine 1 alone (Table 2)
[13] = 100 nM Catemine 1 alone (Table 4)

CN(C)S(=O)(=O)N(SC(F)(Cl)Cl)c1ccccc1 [Dichlofluanid, N′-dimethyl-N-phenylsulphamide]
Barnacle biofouling (% settlement) ([1]; 0.1 μg/ml Dichlofluanid alone): 100%
Barnacle biofouling (% settlement) ([1]; 1 μg/ml Dichlofluanid alone): 50%
Barnacle biofouling (% settlement) ([1]; 10 μg/ml Dichlofluanid alone): 25%
Barnacle biofouling (% settlement) ([1]; 100 μg/ml Dichlofluanid alone): 0%
Ulva biofouling (% survival) ([2]; 0.1 μg/ml Dichlofluanid alone): 100%
Ulva biofouling (% survival) ([2]; 1 μg/ml Dichlofluanid alone): 90%
Ulva biofouling (% survival) ([2]; 10 μg/ml Dichlofluanid alone): 10%
Ulva biofouling (% survival) ([2]; 100 μg/ml Dichlofluanid alone): 0%

CCCCCCCCn1sc(Cl)c(Cl)c1=O [SeaNine, 4,5-dichloro-2-n-octyl-3(2H)-isothiazolone]
Barnacle biofouling (% settlement) ([1]; 0.1 nM SeaNine alone): 100%
Barnacle biofouling (% settlement) ([1]; 1 nM SeaNine alone): 50%
Barnacle biofouling (% settlement) ([1]; 10 nM SeaNine alone): 10%
Barnacle biofouling (% settlement) ([1]; 100 nM SeaNine alone): 0%
Ulva biofouling (% survival) ([2]; 0.1 nM SeaNine alone): 100%
Ulva biofouling (% survival) ([2]; 1 nM SeaNine alone): 50%
Ulva biofouling (% survival) ([2]; 10 nM SeaNine alone): 10%
Ulva biofouling (% survival) ([2]; 100 nM SeaNine alone): 0%

Cc1cccc(C(C)c2c[nH]cn2)c1C (racemic) [Catemine 1, (+/−)-4-[1-(2,3-dimethylphenyl)ethyl]-1H-imidazole]
Enteromorpha biofouling (% survival) ([3]; 0.1 nM Catemine 1 alone): 100%
Enteromorpha biofouling (% survival) ([3]; 1 nM Catemine 1 alone): 100%
Enteromorpha biofouling (% survival) ([3]; 10 nM Catemine 1 alone): 100%
Enteromorpha biofouling (% survival) ([3]; 100 nM Catemine 1 alone): 100%
Barnacle biofouling (% settlement) ([1]; 0.1 nM Catemine 1 alone): 100%
Barnacle biofouling (% settlement) [1, 6]: 100%
Barnacle biofouling (% settlement) ([1]; 0.1 nM Catemine 1 alone (Table 3)): 100%
Barnacle biofouling (% settlement) [1, 7]: 100%
Barnacle biofouling (% settlement) ([1]; 1 nM Catemine 1 alone): 10%
Barnacle biofouling (% settlement) [1, 8]: 10%
Barnacle biofouling (% settlement) ([1]; 1 nM Catemine 1 alone (Table 3)): 10%
Barnacle biofouling (% settlement) [1, 9]: 10%
Barnacle biofouling (% settlement) ([1]; 10 nM Catemine 1 alone): 0%
Barnacle biofouling (% settlement) [1, 10]: 0%
Barnacle biofouling (% settlement) ([1]; 10 nM Catemine 1 alone (Table 3)): 0%
Barnacle biofouling (% settlement) [1, 11]: 0%
Barnacle biofouling (% settlement) ([1]; 100 nM Catemine 1 alone): 0%
Barnacle biofouling (% settlement) [1, 12]: 0%
Barnacle biofouling (% settlement) ([1]; 100 nM Catemine 1 alone (Table 3)): 0%
Barnacle biofouling (% settlement) [1, 13]: 0%
effect of algal growth [4]: no effect
Ulva biofouling (% survival) ([2]; 0.1 nM Catemine 1 alone): 100%
Ulva biofouling (% survival) [2, 6]: 100%
Ulva biofouling (% survival) [2, 7]: 100%
Ulva biofouling (% survival) ([2]; 1 nM Catemine 1 alone): 100%
Ulva biofouling (% survival) [2, 8]: 100%
Ulva biofouling (% survival) [2, 9]: 100%
Ulva biofouling (% survival) ([2]; 10 nM Catemine 1 alone): 100%
Ulva biofouling (% survival) [2, 10]: 100%
Ulva biofouling (% survival) [2, 11]: 100%
Ulva biofouling (% survival) ([2]; 100 nM Catemine 1 alone): 100%
Ulva biofouling (% survival) [2, 12]: 100%
Ulva biofouling (% survival) [2, 13]: 100%
action on barnacle cyprids [5]: specific action

CN(C)C(=O)Nc1ccc(Cl)c(Cl)c1 [Diuron, 3-(3,4-dichlorophenyl)-1,1-dimethylurea]
Barnacle biofouling (% settlement) ([1]; 0.1 μM Diuron alone): 100%
Barnacle biofouling (% settlement) ([1]; 1 μM Diuron alone): 100%
Barnacle biofouling (% settlement) ([1]; 10 μM Diuron alone): 100%
Barnacle biofouling (% settlement) ([1]; 100 μM Diuron alone): 100%
Ulva biofouling (% survival) ([2]; 0.1 μM Diuron alone): 100%
Ulva biofouling (% survival) ([2]; 1 μM Diuron alone): 90%
Ulva biofouling (% survival) ([2]; 10 μM Diuron alone): 50%
Ulva biofouling (% survival) ([2]; 100 μM Diuron alone): 0%

CSc1nc(NC2CC2)nc(NC(C)(C)C)n1 [Irgarol, 2-methylthio-4-tert-butylamino-6-cyclopropylamino-s-triziane]
Enteromorpha biofouling (% survival) ([3]; 0.1 nM Irgarol alone): 100%
Enteromorpha biofouling (% survival) ([3]; 1 nM Irgarol alone): 100%
Enteromorpha biofouling (% survival) ([3]; 10 nM Irgarol alone): 50%
Enteromorpha biofouling (% survival) ([3]; 100 nM Irgarol alone): 0%
Barnacle biofouling (% settlement) ([1]; 0.1 nM Irgarol alone): 100%
Barnacle biofouling (% settlement) ([1]; 1 nM Irgarol alone): 100%
Barnacle biofouling (% settlement) ([1]; 10 nM Irgarol alone): 100%
Barnacle biofouling (% settlement) ([1]; 100 nM Irgarol alone): 100%
